Test results from patent US20120231069A1, “Targeted Nanocarrier Systems for Delivery of Actives Across Biological Membranes” (Access Pharmaceuticals, Inc., priority 2011, published 2012).

Tested on: Diabetic Rats
Assay: Blood glucose reduction in streptozotocin-diabetic rats after oral gavage
Type: in vivo
Details: diabetic female Wistar rats, oral gavage 0.5 mL of 20 IU/mL insulin
Description: Female Wistar rats (200 g) were housed at room temperature with 12 h light/dark cycle. All animals had ad libitum access to a standard chow diet and water except wherever indicated. The rats were allowed to acclimatize for a period of 7 days in the new environment before initiation of the experiment. After randomization into groups of 4, each rat was marked and followed individually throughout the study. All rats were fasted for 1 hour. Streptozotocin obtained from Sigma (98% HPLC) was administered by IV injection at a dose of 55-65 mg/kg in 0.1M citrate buffer (pH 4.5) followed by an additional 1 hour fast. Blood was collected daily from the tail and blood glucose levels were measured using an Accu-Chek® (Compact Plus-Roche) blood glucose monitor. When all animals in the group had achieved a blood glucose level of >250 mg/dl (5 days) the insulin metabolism phase was begun. All animals were fasted for 1 hour and a blood glucose measurement taken (T=0). Groups of rats were dosed by oral gavage with 0.5 mL of an aqueous preparation of insulin nanoparticles (containing 20 IU/mL of insulin) of example 9, or 0.5 mL of an aqueous solution of bovine insulin (20 IU/mL). The animals were then fasted for another hour and blood glucose levels were measured at 1, 4, 8 and 24 hours after dosing.

Substance: plain insulin formulation: aqueous solution of bovine insulin (20 IU/mL), oral comparator
- increase in blood glucose level (compared to T=0) (8 hours after dosing): 1%
- increase in blood glucose level (compared to T=0) (24 hours after dosing): 21%
